Assay results published in article PMC7279038, “Antioxidant and Neuroprotective Effects Induced by Cannabidiol and Cannabigerol in Rat CTX-TNA2 Astrocytes and Isolated Cortexes” (International Journal of Molecular Sciences, 2020).

How the values were obtained:
[1] = Cupric reducing antioxidant capacity (CUPRAC); conditions: mean ± S.D., n = 3
Experimental: For the cupric ion reducing activity (CUPRAC) activity assay, sample solution was added to premixed reaction mixture containing CuCl2 (1 mL, 10 mM), neocuproine (1 mL, 7.5 mM) and NH4Ac buffer (1 mL, 1 M, pH 7.0). Similarly, a blank was prepared by adding sample solution (0.5 mL) to premixed reaction mixture […] without CuCl2. Then, the sample and blank absorbances were read at 450 nm after a 30 min incubation at room temperature. The absorbance of the blank was subtracted from that of the sample. CUPRAC activity was expressed as IC50 values.

[2] = system: CTX-TNA2 astrocyte cell line; experiment: Apoptosis occurrence, Annexin-V/PI flow cytometry; type: cell-based, rat; conditions: challenged with H2O2; CBD 1000 nM, CBG 1 nM; 24 h, lasting up to 48 h
Experimental: The CTX-TNA2 rat astrocytes were purchased from the European Collection of Cell Cultures (ECACC), Sigma-Aldrich, Milan, Italy, and cultured as already indicated. Cells were grown in Dulbecco’s Modified Eagle Medium supplemented with 10% of FBS and penicillin–streptomycin (100 µgmL^−1) (all from EuroClone SpA Life-Sciences-Division, Milan, Italy) and maintained in a humified atmosphere of 5% CO2 at 37 °C. Cells were subcultivated at a ratio of 1.2 to 1.8 and the medium was changed every 3 days. CTX-TNA2 astrocytes were plated in 25 or 75 cm^2 flasks, according to experimental needing and cells between the eight and the 15 passage were used.
When indicated, the cells were treated with H2O2 300 µM for three hours and different concentrations of CBD (1–1000 nM) and CBG (1–1000 nM). The stock solutions were diluted in cell medium to the point that the concentration of DMSO in the samples was less than 0.0003%. Therefore, the addition of DMSO to the control samples was not necessary.
A FITC Annexin-V apoptosis detection kit (BD Pharmingen, San Diego, CA, USA) was used to assess apoptosis, according to the manufacturer’s instructions. […] After the addition of 200 µL of binding buffer, samples were analyzed with a Cytoflex flow cytometer with the FL1 and FL3 detector in a log mode, using the Cytoexpert analysis software (both from Beckmann Coulter). […]

synaptotagmin-1 (Syt 1) = experiment: Untargeted proteomic analysis of cortexes, Syt 1; set-up: species or system rat; conditions: CBD 1000 nM, CBG 1 nM
Experimental: Sprague–Dawley rats (200–250 g) were sacrificed by CO2 inhalation (Italian Health Ministry authorization N. F4738.N.XTQ, delivered on 11th November 2018) and isolated prefrontal cortex specimens were immediately explanted and incubated in thermostatic shaking bath at 37 °C for 1 h (incubation period), in Krebs–Ringer buffer at the following K^+ concentrations:
Cortexes were stimulated with CBD (1000 nM) and CBD (1 nM). Afterwards, specimens were homogenized in perchloric acid solution (0.05 M) for the extraction and quantification of nitrites, via the aforementioned colorimetric Griess assay, and serotonin (5-HT), 5-hydroxyindoleacetic (5HIIA),3-hydroxykinurenine (3-HK) and kinurenic acid (KA) (ng/mg wet tissue) via high performance liquid chromatography analysis. Additionally, an untargeted proteomic analysis was carried out on the cortex homogenate. The analytical protocols for 5-HT, 5HIIA, 3-HK, KA and protein level determinations are described below. […]
After protein quantification, a volume corresponding to 50 μg of proteins was loaded onto a Nanosep 10-kDa-cutoff filter (Pall Corporation, Michigan, USA) and digested according to the protocol we routinely use in our laboratory, adapted from Distler et al. Briefly, the sample was washed twice with 200 μL urea buffer (8M urea, 100 mM Tris pH 8.5 in milliQ water) to remove the detergents present in the lysis buffer. […]

Row | Compound | IC50 [1] | early apoptosis (Annexin-Vpos/PIneg cells) [2] | effect on K+ 60 mM-induced reduction in Syt 1 level (synaptotagmin-1 (Syt 1))
1 | C=C(C)[C@@H]1CCC(C)=C[C@H]1c1c(O)cc(CCCCC)cc1O [CBD, Cannabidiol] | 940 ± 10 µM | reduce early apoptosis | blocking the downregulation
2 | CCCCCc1cc(O)c(C/C=C(\C)CCC=C(C)C)c(O)c1 [CBG, cannabigerol] | 590 ± 10 µM | reduce early apoptosis | completely ineffective
